Data on 7 molecules can be found in ChEMBL document CHEMBL4417633, “Inhibitory polypeptides specific to WNT inhibitors” (2017).

Molecules are shown by their SMILES. Where a SMILES comes first, the peptide text is derived from it.

The target in assay [1] is T1, Dickkopf-related protein 1 (Homo sapiens, UniProt O94907).
T1 sequence (O94907 whole entry): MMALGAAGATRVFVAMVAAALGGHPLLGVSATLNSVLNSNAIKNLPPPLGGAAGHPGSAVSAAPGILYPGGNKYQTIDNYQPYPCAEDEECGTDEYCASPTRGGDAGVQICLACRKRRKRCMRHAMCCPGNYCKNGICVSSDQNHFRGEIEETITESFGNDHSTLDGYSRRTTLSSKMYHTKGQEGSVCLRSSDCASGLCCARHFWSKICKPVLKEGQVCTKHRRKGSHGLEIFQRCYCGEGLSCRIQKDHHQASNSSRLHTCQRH
The assay can be described thus: Inhibition of biotin-labeled human recombinant DKK1 assessed as reduction in DKK1 interaction with LRP-6/Fc incubated overnight by chemiluminescence based Alpha-screen assay. (In general: Bead proximity is the source of the signal in Alpha formats.)

Assay [2] concerns the target T2, Dickkopf WNT-signaling pathway inhibitor 1 (Rattus norvegicus, UniProt A6I0Z0).
T2 sequence (A6I0Z0 whole entry): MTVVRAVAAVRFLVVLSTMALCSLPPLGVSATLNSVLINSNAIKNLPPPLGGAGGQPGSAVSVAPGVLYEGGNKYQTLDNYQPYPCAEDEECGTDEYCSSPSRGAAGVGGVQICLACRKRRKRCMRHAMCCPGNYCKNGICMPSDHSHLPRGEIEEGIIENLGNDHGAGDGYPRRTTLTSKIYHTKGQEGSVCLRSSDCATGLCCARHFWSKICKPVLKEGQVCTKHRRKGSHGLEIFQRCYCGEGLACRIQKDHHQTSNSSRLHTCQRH
The assay can be described thus: Inhibition of biotin-labeled rat recombinant DKK1 assessed as reduction in DKK1 interaction with LRP-6/Fc incubated overnight by chemiluminescence based Alpha-screen assay.

Regarding `CSCC[C@H](NC(=O)[C@@H]1CCCN1C(=O)[C@H](Cc1ccc(O)cc1)NC(=O)[C@H](CS)NC(=O)[C@H](Cc1cnc[nH]1)NC(=O)[C@H](CCCCN)NC(=O)[C@H](Cc1ccc(O)cc1)NC(=O)[C@H](CC(N)=O)NC(=O)CNC(=O)[C@H](CS)NC(=O)[C@H](CCC(N)=O)NC(=O)[C@H](Cc1ccccc1)NC(=O)[C@H](Cc1ccc(O)cc1)NC(=O)[C@H](CO)NC(=O)[C@H](C)NC(=O)[C@@H]1CCCN1C(=O)[C@@H](N)CS)C(=O)N[C@@H](CCC(=O)O)C(=O)N[C@@H](Cc1c[nH]c2ccccc12)C(=O)N[C@@H](Cc1cnc[nH]1)C(=O)N[C@@H](CS)C(=O)N[C@@H](CC(=O)O)C(=O)NCC(=O)N[C@@H](Cc1ccccc1)C(=O)N[C@@H](CCC(N)=O)C(=O)N[C@@H](CC(=O)O)C(=O)N[C@@H](CS)C(=O)N[C@H](C(=O)N[C@@H](CC(=O)O)C(=O)NCC(=O)N[C@@H](CO)C(=O)N[C@@H](CC(=O)O)C(=O)N[C@@H](CCC(=O)O)C(=O)N[C@@H](CCCCN)C(=O)N[C@@H](C)C(=O)N[C@@H](CS)C(=O)N1CCC[C@H]1C(=O)N[C@@H](Cc1ccc(O)cc1)C(=O)N[C@@H](CCCNC(=N)N)C(=O)N[C@H](C(=O)O)[C@@H](C)O)C(C)C` (H-CPASYFQCGNYKHCYPMEWHCDGFQDCVDGSDEKACPYRT-OH), the IC50 in assay [1] and in assay [2] was at most 1 nM each time.
Consider `CSCC[C@H](NC(=O)[C@H](Cc1ccccc1)NC(=O)[C@H](CCC(=O)O)NC(=O)[C@H](Cc1ccc(O)cc1)NC(=O)[C@H](CO)NC(=O)[C@@H]1CCCN1C(=O)[C@@H](N)CS)C(=O)N[C@@H](CS)C(=O)N[C@@H](C)C(=O)N[C@@H](CC(=O)O)C(=O)N[C@@H](CCCCN)C(=O)N[C@@H](CCSC)C(=O)N[C@@H](CS)C(=O)N[C@@H](Cc1ccccc1)C(=O)N1CCC[C@H]1C(=O)N[C@@H](CC(C)C)C(=O)N[C@@H](CO)C(=O)N[C@@H](Cc1ccccc1)C(=O)N[C@@H](CC(C)C)C(=O)N[C@@H](CS)C(=O)N[C@@H](CC(=O)O)C(=O)NCC(=O)N[C@@H](CCC(=O)O)C(=O)N[C@@H](CC(N)=O)C(=O)N[C@@H](CC(=O)O)C(=O)N[C@@H](CS)C(=O)N[C@@H](CCC(=O)O)C(=O)N[C@@H](CC(=O)O)C(=O)NCC(=O)N[C@@H](CO)C(=O)N[C@@H](CC(=O)O)C(=O)N[C@@H](CCC(=O)O)C(=O)N[C@@H](CC(=O)O)C(=O)N[C@@H](Cc1ccc(O)cc1)C(=O)N[C@@H](CS)C(=O)N1CCC[C@H]1C(=O)N[C@@H](CO)C(=O)N[C@@H](CCCNC(=N)N)C(=O)N[C@H](C(=O)O)[C@@H](C)O` (H-CPSYEFMCADKMCFPLSFLCDGENDCEDGSDEDYCPSRT-OH), for which the IC50 in assay [1] and in assay [2] was at most 1 nM in each case.
For `CC[C@H](C)[C@H](NC(=O)[C@H](CC(N)=O)NC(=O)CNC(=O)[C@H](CS)NC(=O)[C@H](CCC(N)=O)NC(=O)[C@H](Cc1ccccc1)NC(=O)[C@H](Cc1ccc(O)cc1)NC(=O)[C@H](CO)NC(=O)[C@H](C)NC(=O)[C@@H]1CCCN1C(=O)[C@@H](N)CS)C(=O)N[C@@H](CC(N)=O)C(=O)N[C@@H](Cc1cnc[nH]1)C(=O)N[C@@H](CS)C(=O)N[C@@H](Cc1ccc(O)cc1)C(=O)N1CCC[C@H]1C(=O)N[C@H](C(=O)N[C@@H](CCC(=O)O)C(=O)N[C@@H](Cc1c[nH]c2ccccc12)C(=O)N[C@@H](CCCNC(=N)N)C(=O)N[C@@H](CS)C(=O)N[C@@H](CC(=O)O)C(=O)NCC(=O)N[C@@H](Cc1ccccc1)C(=O)N[C@@H](CCC(N)=O)C(=O)N[C@@H](CC(=O)O)C(=O)N[C@@H](CS)C(=O)N[C@@H](CC(=O)O)C(=O)N[C@@H](CC(=O)O)C(=O)NCC(=O)N[C@@H](CO)C(=O)N[C@@H](CC(=O)O)C(=O)N[C@@H](CCC(=O)O)C(=O)N[C@@H](Cc1ccc(O)cc1)C(=O)N[C@H](C(=O)N[C@@H](CS)C(=O)N1CCC[C@H]1C(=O)N[C@@H](Cc1ccc(O)cc1)C(=O)N[C@@H](CCCNC(=N)N)C(=O)N[C@H](C(=O)O)[C@@H](C)O)C(C)C)C(C)C` (H-CPASYFQCGNINHCYPVEWRCDGFQDCDDGSDEYVCPYRT-OH), the 50% inhibitory concentration (IC50) in assay [1] and in assay [2] was at most 1 nM each time.
Regarding `CC[C@H](C)[C@H](NC(=O)[C@H](CC(N)=O)NC(=O)CNC(=O)[C@H](CS)NC(=O)[C@H](CCC(N)=O)NC(=O)[C@H](Cc1ccccc1)NC(=O)[C@H](Cc1ccc(O)cc1)NC(=O)[C@H](CO)NC(=O)[C@@H]1CCCN1C(=O)[C@@H]1CCCN1C(=O)[C@@H](N)CS)C(=O)N[C@@H](CC(N)=O)C(=O)N[C@@H](Cc1cnc[nH]1)C(=O)N[C@@H](CS)C(=O)N[C@@H](Cc1ccc(O)cc1)C(=O)N1CCC[C@H]1C(=O)N[C@@H](CCSC)C(=O)N[C@@H](CCC(=O)O)C(=O)N[C@@H](Cc1c[nH]c2ccccc12)C(=O)N[C@@H](CCCNC(=N)N)C(=O)N[C@@H](CS)C(=O)N[C@@H](CC(=O)O)C(=O)NCC(=O)N[C@@H](Cc1ccccc1)C(=O)N[C@@H](Cc1cnc[nH]1)C(=O)N[C@@H](CC(=O)O)C(=O)N[C@@H](CS)C(=O)N[C@H](C(=O)N[C@@H](CC(=O)O)C(=O)NCC(=O)N[C@@H](CO)C(=O)N[C@@H](CC(=O)O)C(=O)N[C@@H](CCC(=O)O)C(=O)N[C@@H](CCC(N)=O)C(=O)NCC(=O)N[C@@H](CS)C(=O)N1CCC[C@H]1C(=O)N[C@@H](Cc1ccc(O)cc1)C(=O)N[C@@H](CCCNC(=N)N)C(=O)N[C@H](C(=O)O)[C@@H](C)O)C(C)C` (H-CPPSYFQCGNINHCYPMEWRCDGFHDCVDGSDEQGCPYRT-OH), the IC50 in assay [1] and in assay [2] was at most 1 nM each time.
As to `CSCC[C@H](NC(=O)[C@H](Cc1ccccc1)NC(=O)[C@H](CCC(=O)O)NC(=O)[C@H](CC(N)=O)NC(=O)[C@H](CCCNC(=N)N)NC(=O)[C@@H]1CCCN1C(=O)[C@@H](N)CS)C(=O)N[C@@H](CS)C(=O)N[C@@H](C)C(=O)N[C@@H](CC(=O)O)C(=O)N[C@@H](CCCCN)C(=O)N[C@@H](CCSC)C(=O)N[C@@H](CS)C(=O)N[C@@H](Cc1ccccc1)C(=O)N1CCC[C@H]1C(=O)N[C@H](C(=O)N[C@@H](CO)C(=O)N[C@@H](Cc1ccccc1)C(=O)N[C@@H](CC(C)C)C(=O)N[C@@H](CS)C(=O)N[C@@H](CC(=O)O)C(=O)NCC(=O)N[C@@H](CCC(=O)O)C(=O)N[C@@H](CC(N)=O)C(=O)N[C@@H](CC(=O)O)C(=O)N[C@@H](CS)C(=O)N[C@@H](CCC(=O)O)C(=O)N[C@@H](CC(=O)O)C(=O)NCC(=O)N[C@@H](CO)C(=O)N[C@@H](CC(=O)O)C(=O)N[C@@H](CCC(=O)O)C(=O)N[C@@H](CC(=O)O)C(=O)N[C@@H](Cc1ccc(O)cc1)C(=O)N[C@@H](CS)C(=O)N1CCC[C@H]1C(=O)N[C@@H](CO)C(=O)N[C@@H](CCCNC(=N)N)C(=O)N[C@H](C(=O)O)[C@@H](C)O)C(C)C` (H-CPRNEFMCADKMCFPVSFLCDGENDCEDGSDEDYCPSRT-OH), the IC50 in assay [1] and in assay [2] was at most 1 nM throughout.
For `CSCC[C@H](NC(=O)[C@@H]1CCCN1C(=O)[C@H](Cc1ccc(O)cc1)NC(=O)[C@H](CS)NC(=O)[C@H](Cc1cnc[nH]1)NC(=O)[C@H](CC(N)=O)NC(=O)[C@H](CCCCN)NC(=O)[C@H](CC(N)=O)NC(=O)[C@H](CCCNC(=N)N)NC(=O)[C@H](CS)NC(=O)[C@H](CCCCN)NC(=O)[C@H](Cc1ccccc1)NC(=O)[C@H](Cc1ccc(O)cc1)NC(=O)[C@H](CO)NC(=O)[C@@H](NC(=O)[C@@H]1CCCN1C(=O)[C@@H](N)CS)C(C)C)C(=O)N[C@@H](CCC(=O)O)C(=O)N[C@@H](Cc1c[nH]c2ccccc12)C(=O)N[C@@H](CCCNC(=N)N)C(=O)N[C@@H](CS)C(=O)N[C@@H](CC(=O)O)C(=O)NCC(=O)N[C@@H](Cc1ccccc1)C(=O)N1CCC[C@H]1C(=O)N[C@@H](CC(=O)O)C(=O)N[C@@H](CS)C(=O)N[C@@H](CCC(=O)O)C(=O)N[C@@H](CC(=O)O)C(=O)NCC(=O)N[C@@H](CO)C(=O)N[C@@H](CC(=O)O)C(=O)N[C@@H](CCC(=O)O)C(=O)N[C@@H](CCCCN)C(=O)NCC(=O)N[C@@H](CS)C(=O)N1CCC[C@H]1C(=O)N[C@@H](Cc1ccc(O)cc1)C(=O)N[C@@H](CCCNC(=N)N)C(=O)N[C@H](C(=O)O)[C@@H](C)O` (H-CPVSYFKCRNKNHCYPMEWRCDGFPDCEDGSDEKGCPYRT-OH), the half-maximal inhibitory concentration (IC50) in assay [1] and in assay [2] was at most 1 nM each time.
Regarding `CSCC[C@H](NC(=O)[C@@H]1CCCN1C(=O)[C@H](Cc1ccc(O)cc1)NC(=O)[C@H](CS)NC(=O)[C@H](CO)NC(=O)[C@H](CC(N)=O)NC(=O)[C@H](CC(N)=O)NC(=O)[C@H](CC(N)=O)NC(=O)[C@H](CCCNC(=N)N)NC(=O)[C@H](CS)NC(=O)[C@H](CCC(N)=O)NC(=O)[C@H](Cc1ccccc1)NC(=O)[C@H](Cc1ccc(O)cc1)NC(=O)[C@H](CO)NC(=O)[C@H](C)NC(=O)[C@@H]1CCCN1C(=O)[C@@H](N)CS)C(=O)N[C@@H](CCC(=O)O)C(=O)N[C@@H](Cc1c[nH]c2ccccc12)C(=O)N[C@@H](CCCNC(=N)N)C(=O)N[C@@H](CS)C(=O)N[C@@H](CC(=O)O)C(=O)NCC(=O)N[C@@H](Cc1ccccc1)C(=O)N[C@@H](CCC(=O)O)C(=O)N[C@@H](CC(=O)O)C(=O)N[C@@H](CS)C(=O)N[C@@H](CCC(=O)O)C(=O)N[C@@H](CC(=O)O)C(=O)NCC(=O)N[C@@H](CO)C(=O)N[C@@H](CC(=O)O)C(=O)N[C@@H](CCC(=O)O)C(=O)N[C@@H](CCCNC(=N)N)C(=O)NCC(=O)N[C@@H](CS)C(=O)N1CCC[C@H]1C(=O)N[C@@H](Cc1ccc(O)cc1)C(=O)N[C@@H](CCCNC(=N)N)C(=O)N[C@H](C(=O)O)[C@@H](C)O` (H-CPASYFQCRNNNSCYPMEWRCDGFEDCEDGSDERGCPYRT-OH), the half-inhibitory concentration (IC50) in assay [1] and in assay [2] was at most 1 nM in each case.

As a reminder, the IC50 is the concentration at which inhibition is half-maximal.
